Among the data in PubChem BioAssay AID1549 (Sanford-Burnham Center for Chemical Genomics, 2009) are Kd values, retold here.

Active and inactive are the calls of the source. The rule behind the calls is not given here. Some results are limits rather than exact numbers.

The experiment has as its target Influenza A virus M2 proton channel (A/TW/4845/1999 H1N1). Description: NMR binding screen, influenza A virus M2 proton channel, Kd (AID 1549). The following applies: M2 protein.
For the molecule `O=C(O)c1ccccc1C(=O)NCC1CCCO1` (stereo unspecified), the Kd (commonly the free concentration of one partner at which half of the binding sites on the other are occupied at equilibrium, for simple one-to-one binding) is > 4 mM (inactive).
Then `CC(C)(O)[C@@H]1Cc2cc3ccc(=O)oc3cc2O1`, with > 4 mM (inactive); and `O=C(NC(=S)NC1CCS(=O)(=O)C1)c1ccccc1` (stereo unspecified), with > 4 mM (inactive).
Take `CCOc1ccc(C)cc1S(=O)(=O)n1ccc(C)n1`: the Kd is > 4 mM (inactive).
In the case of `CCC(=O)NC(=S)Nc1ccc(C(N)=O)cc1`, the Kd is > 4 mM (inactive).
For `CN=C1SC(CC(=O)Nc2ccc(O)cc2)C(=O)N1C` (stereo unspecified), the Kd was > 4 mM (inactive).
`O=C(NC(=O)N1CCOCC1)c1ccccc1`: the Kd was > 4 mM (inactive).
Consider `c1ccc(Cn2c(Nn3cnnc3)nc3ccccc32)cc1`, for which the Kd was > 4 mM (inactive).
As for `CNC(=S)N1CCN=C1Nc1nc(C)cc(C)n1`, the Kd is > 4 mM (inactive).
In the case of `CCOC(=O)c1sc(SC)c2c1CCCC2O` (stereo unspecified), the Kd was > 4 mM (inactive).
As for `CC(C)CCCC(C)C1CCC2C3=CC[C@H]4C[C@@H](O)CC[C@]4(C)C3CC[C@@]21C` (stereo partly specified), the Kd is > 4 mM (inactive).
Then `O=C(NCc1cccnc1)c1ccccn1`, with > 4 mM (inactive); and `Cn1c(=O)c2c(ncn2CCNC2=NCCC2)n(C)c1=O`, with > 4 mM (inactive); and `O=C1C(=O)N(CNc2ncccn2)c2ccccc21`, with > 4 mM (inactive).
Take `O=c1c2ccccc2[nH]c2ncccc12`: the Kd was > 4 mM (inactive).
As to `COc1cc2c(cc1OC)C(=O)OC2`, the Kd was > 4 mM (inactive).
In the case of `Cc1ccc(CNc2ccc(O)cc2)cc1`, the Kd was > 4 mM (inactive).
For `C=C(C)[C@@H]1[C@H]2OC(=O)[C@@H]1[C@]1(O)C[C@H]3O[C@]34C(=O)O[C@H]2[C@]14C`, the Kd is > 4 mM (inactive).
`COC(=O)[C@]1(C)CCC[C@]2(C)c3ccc(C(C)C)cc3C(=O)CC12` (stereo partly specified): the Kd was > 4 mM (inactive).
For the molecule `CCOc1ccc(Cl)cc1S(=O)(=O)N1CCCC1`, the Kd was > 4 mM (inactive).
For `O=C(c1ccccc1)N1CCNCC1`, the Kd was > 4 mM (inactive).
For `O=C(NCc1ccccc1)c1cnsn1`, the Kd was > 4 mM (inactive).
Then `Cc1nc(SCC#N)c2c3c(sc2n1)CCC3`, with > 4 mM (inactive); and `COc1cc(C(=S)N2CCOCC2)ccc1O`, with > 4 mM (inactive); and `Cc1csc(NC(=O)c2ccoc2C)n1`, with > 4 mM (inactive).
With `CCOC(=O)c1c(C)nc2ccccn12`, the Kd is > 4 mM (inactive).
For the molecule `COc1ccccc1CNc1nc2nc(C)cc(=O)n2[nH]1`, the Kd was > 4 mM (inactive).
As to `NCc1cn2ccccc2n1`, the Kd was > 4 mM (inactive).
Turning to `Cc1scc(C(=O)Nc2ccon2)c1-c1ccccc1`, the Kd was > 4 mM (inactive).
Then `COc1cccc(-c2nc3ccc(O)cc3c(=O)o2)c1`, with > 4 mM (inactive); and `O=C(NCCCSc1ncccn1)Nc1ncccn1`, with > 4 mM (inactive); and `Cc1nnc2n(c1=O)N=C(c1ccccc1)CS2`, with > 4 mM (inactive).
In the case of `CC(=O)Nc1cc2c(cc1C(=O)C(C)C)OCCO2`, the Kd was > 4 mM (inactive).
With `CN(C)c1ccc(C2CC(=O)CC(=O)C2)cc1` the figure was > 4 mM (inactive); with `COC(=O)C(O)c1ccccc1` (stereo unspecified), > 4 mM (inactive).
With `CC(C)=CC(=O)Nc1ccccc1C(N)=O` the figure was > 4 mM (inactive); with `COc1ccc2c(c1)OC[C@@H](Cc1ccc(OC)c(OC)c1)[C@@H]2O`, > 4 mM (inactive); with `CC(C)NC(=O)Cc1c(O)c2ccccc2[nH]c1=O`, > 4 mM (inactive).
With `O=S(=O)(Nc1cccc2cn[nH]c12)c1ccc(F)cc1` the figure was > 4 mM (inactive).
In the case of `O=C1C2CC=CCC2C(=O)N1c1ccccc1O` (stereo unspecified), the Kd is > 4 mM (inactive).
Then `O=C1CSC(=Nc2cccc(C(=O)O)c2)N1`, with > 4 mM (inactive).
For the molecule `O=C(c1ccco1)N1CCn2c1nc1ccccc12`, the Kd was > 4 mM (inactive).
For `CC(=O)Nc1cnn(Cc2ccc(Br)cc2)c1`, the Kd is > 4 mM (inactive).
Then `CC(=O)O[C@H]1C[C@@H](OC(C)=O)C(C)(C)C2C[C@@H](OC(C)=O)[C@]3(C)C(CC[C@@]4(C)[C@H](c5ccoc5)OC(=O)[C@H]5O[C@]543)[C@]21C` (stereo partly specified), with > 4 mM (inactive); and `Cc1nnc(SCc2cccs2)[nH]c1=O`, with > 4 mM (inactive); and `Cn1c(SCCC(=O)O)nnc1-c1cccnc1`, with > 4 mM (inactive).
In the case of `COc1ccc2c(c1)C(NC(C)=O)C(=O)N2C` (stereo unspecified), the Kd was > 4 mM (inactive).
Consider `O=C1NC(=O)/C(=C\c2ccncc2)S1`, for which the Kd is > 4 mM (inactive).
Then `O=[N+]([O-])c1ccc2c(c1)N([O-])C1(CCCCC1)[N+]2=O`, with > 4 mM (inactive); and `O=C1CCCN1C(=O)CN1CCOCC1`, with > 4 mM (inactive); and `CC1(O)CC2C(CC1O)C2(C)C` (stereo unspecified), with > 4 mM (inactive).
With `O=C(Nc1ncccn1)c1cccc(F)c1` the figure was > 4 mM (inactive); with `O=C(O)c1cc2ccccc2cn1`, > 4 mM (inactive).
Then `O=C(O)c1cncc(-c2cccs2)c1`, with > 4 mM (inactive).
In the case of `Cc1noc(C)c1C(=O)NCc1ccco1`, the Kd is > 4 mM (inactive).
For the molecule `CCOC(=O)c1c(C)n([O-])c2ccccc2[n+]1=O`, the Kd was > 4 mM (inactive).
As to `OCC1Cc2ccccc2N1` (stereo unspecified), the Kd was > 4 mM (inactive).
Then `NC(=O)COc1cccc2cccnc12`, with > 4 mM (inactive); and `COC(=O)[C@@H]1OC(=O)C2OC23[C@@]1(C)CCC1[C@]2(C)C(C[C@H](O)[C@]13C)C(C)(C)[C@H](OC(C)=O)C[C@@H]2OC(C)=O` (stereo partly specified), with > 4 mM (inactive); and `O=c1c2c(nc3nc(COc4ccccc4)[nH]n13)CCC2`, with > 4 mM (inactive).
With `COc1cc(S(=O)(=O)Nc2cccnc2)ccc1F` the figure was > 4 mM (inactive).
Turning to `Cc1ccc2nc(SCC(=O)O)nc(C)c2c1`, the Kd is > 4 mM (inactive).
In the case of `Cn1nc(C(=O)N2CCOCC2)c2ccccc2c1=O`, the Kd is > 4 mM (inactive).
With `COc1ccc(-c2nc(N)n(C(C)=O)n2)cc1` the figure was > 4 mM (inactive); with `Cn1ccnc1SCc1cc(=O)[nH]c2ccccc12`, > 4 mM (inactive); with `COC(=O)c1c(C)cc(OC(=O)c2c(C)cc(O)c(C=O)c2O)c(C)c1O`, > 4 mM (inactive).
With `COc1ccc(C(N)=O)cc1N`, the Kd was > 4 mM (inactive).
In the case of `C=C[C@](C)(O)CCC=C(C)C`, the Kd was > 4 mM (inactive).
In the case of `O=C(Cc1cccs1)Nc1ccon1`, the Kd is > 4 mM (inactive).
With `NC1CN2CCC1CC2` (stereo unspecified) the figure was > 4 mM (inactive); with `CC1=NN(c2ccc(N)cc2)C(=O)C1`, > 4 mM (inactive).
With `CNC(=O)C(=O)NCc1ccc(C)cc1`, the Kd is > 4 mM (inactive).
For `CC(=O)Nc1ccc(S(=O)(=O)Nc2cc(C)on2)cc1`, the Kd was > 4 mM (inactive).
For `O=c1ccc2ccc(O)cc2o1`, the Kd is > 4 mM (inactive).
As to `Cn1ncc(C(=O)NC2CCCCC2)c1Cl`, the Kd was > 4 mM (inactive).
Consider `COc1ccc(-c2coc3cc(OC)cc(OC)c3c2=O)cc1`, for which the Kd is > 4 mM (inactive).
Then `Nc1ccc(OCc2ccccc2)cc1`, with > 4 mM (inactive).
Take `N[C@@H](CCC(=O)N[C@@H](CS)C(=O)NCC(=O)O)C(=O)O`: the Kd was > 4 mM (inactive).
Then `C[C@H]1O[C@@H](O[C@H]2[C@@H](O)C[C@H](O[C@H]3[C@@H](O)C[C@H](O[C@H]4CC[C@]5(C)C6CC[C@]7(C)[C@@H](C8=CC(=O)OC8)CC[C@]7(O)C6CC[C@@H]5C4)O[C@@H]3C)O[C@@H]2C)C[C@H](O)[C@@H]1O` (stereo partly specified), with > 4 mM (inactive); and `COC(=O)c1ccccc1N(C)S(C)(=O)=O`, with > 4 mM (inactive); and `CC(C)C1COc2cc3oc(=O)ccc3cc2O1` (stereo unspecified), with > 4 mM (inactive).
For `O=C1CSC(=NC(=O)c2ccccc2)N1`, the Kd was > 4 mM (inactive).
Regarding `O=C(O)CS(=O)(=O)c1ccccc1[N+](=O)[O-]`, the Kd was > 4 mM (inactive).
In the case of `O=C(Nc1c[nH]c(=O)[nH]c1=O)c1cccs1`, the Kd is > 4 mM (inactive).
As for `COC(=O)CSc1ncnc2c(C)csc12`, the Kd was > 4 mM (inactive).
Turning to `CC(=O)O[C@H]1C[C@@H](OC(C)=O)C(C)(C)C2C[C@@H](OC(C)=O)[C@]3(C)C(CC[C@@]4(C)[C@H](c5ccoc5)C(=O)[C@H]5O[C@]543)[C@]21C` (stereo partly specified), the Kd was > 4 mM (inactive).
Turning to `Cc1cc(O)cc(O)c1C(=O)O`, the Kd is > 4 mM (inactive).
`CC(=O)Nc1ccc(NC(C)=O)cc1`: the Kd is > 4 mM (inactive).
Regarding `COc1cc(C(=S)N2CCCC2)cc(Cl)c1O`, the Kd was > 4 mM (inactive).
Turning to `O=c1[nH]c(O)c(C=NC2CC2)c(=O)[nH]1`, the Kd was > 4 mM (inactive).
Take `O=c1[nH]cc(NCc2ccccc2)c(=O)[nH]1`: the Kd is > 4 mM (inactive).
With `Cc1cc(O)c(C)c(O)c1C(=O)O` the figure was > 4 mM (inactive); with `Nc1ccc2c(c1)S(=O)(=O)C=C2`, > 4 mM (inactive).
With `COc1cc2c(cc1OC)[C@@H]1C(=O)c3ccc4c(c3O[C@@H]1CO2)CC(C(C)C)O4` (stereo partly specified), the Kd was > 4 mM (inactive).
`COc1ccccc1NC(=O)/C=N/O`: the Kd is > 4 mM (inactive).
With `O=C1CSC(c2ccc3c(c2)OCO3)N1` (stereo unspecified) the figure was > 4 mM (inactive); with `O=C(O)CCS(=O)(=O)c1ccccc1`, > 4 mM (inactive); with `COc1c(-c2coc3cc4c(cc3c2=O)CC(OC(C)=O)C(C)(C)O4)ccc2c1C=CC(C)(C)O2` (stereo unspecified), > 4 mM (inactive).
`CN1CN/C(=N\[N+](=O)[O-])N(c2ccccc2)C1`: the Kd is > 4 mM (inactive).
Then `O=S1(=O)NC(=NCc2ccco2)c2ccccc21`, with > 4 mM (inactive); and `CN1CCCC1C(=O)O` (stereo unspecified), with > 4 mM (inactive).
